Experimental data as given in PubChem BioAssay (NCI).
Values joined by “and” are separate entries in the source; they are usually repeats but may differ in a detail not shown here. Equal values may be shown once.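 Five compound concentrations were applied to cells in 96-well plates for 48 hours; endpoints were derived by simple linear interpolation of the resulting dose-response curve. GI50 = concentration required for 50% inhibition of growth. TGI: concentration producing complete growth inhibition.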

What follows are molecules tested on OVCAR-5 ovarian (assay: NCI anticancer screen, dose series, 48 h).

Compound	TGI	GI50
O=C(CCCn1ccnc1[N+](=O)[O-])NCCn1cncc1[N+](=O)[O-]	> 100 µM	–
Cn1cc(C2=C(c3ccc4ccccc4c3)C(=O)NC2=O)c2ccccc21	> 25 µM	> 25 µM
C[As](C)SC1OC(CO)C(O)C1O (stereo unspecified)	5.33 µM	0.864 µM
CNC(=S)N(C)C(=S)Nn1c(=O)c(C)nn(C)c1=S	> 100 µM	–
CCCCCCCCCC/C=C/CC(=O)SCCNC(=O)CCNC(=O)[C@@H](O)C(C)(C)COP(=O)(O)OP(=O)(O)OCC1OC(n2cnc3c(N)ncnc32)C(O)C1OP(=O)(O)O (stereo partly specified)	> 10 µM	–
Cn1c(=O)c2c(nc(Nc3cc(=O)[nH]c(=O)[nH]3)n2Cc2ccccc2)n(C)c1=O	> 100 µM	> 100 µM
COc1ccc2c(c1)CCC1C2CC[C@@]2(C)C1CC1=CC(COC(C)=O)C3C(=O)c4ccccc4C(=O)C3C12 (stereo partly specified)	> 100 µM	> 100 µM
O=C1CCCC/C(=C/c2ccccc2)N1	> 100 µM	–
O=C1CN=C(C[N+](=O)[O-])c2ccccc21	> 100 µM	–
CC/C(=C(/c1ccc(OCCN(C)C)cc1)c1ccc(OC(=O)CCCCC(=O)c2c(C)[nH]c(/C=C3\N=C(c4ccc[nH]4)C=C3OC)c2C)cc1)c1ccccc1	22.5 µM	10.6 µM
CC[C@]12C=CCN3CC[C@@]4(c5ccc(OC)cc5N(C)[C@H]4[C@@](O)(C(=O)OC)[C@@H]1OC(=O)CCC[P+](c1ccccc1)(c1ccccc1)c1ccccc1)[C@@H]32	5.91 µM and 11 µM	1.19 µM and 1.38 µM
CC(=O)OC1Oc2ccccc2-c2oc(=O)c(-c3cc(=O)oc4cc(O)ccc34)cc21 (stereo unspecified)	57.2 µM	26.6 µM
CC(C)(C)C(=O)OCOP(=O)(OCOC(=O)C(C)(C)C)C1CCCN(O)C1=O (stereo unspecified)	62.7 µM	2.01 µM
CC(=O)O.CC(=O)O.CC(=O)O.CC(=O)O.CC(=O)O.CC(=O)O.O.[Ti].[Ti]	> 100 µM	> 100 µM
COC(=O)C1=C(c2ccc3c(c2)OCO3)O[C@H](c2cc(OC)c(OC)c(OC)c2)[C@H]1COC(C)=O	> 100 µM	–
Cc1ccc(Cl)cc1Nc1nc(C(F)(F)F)ccc1C(=O)N1CCN(c2ccc(F)cc2)CC1	30.1 µM	12.1 µM
COc1ccc(OC)c(NC(=O)C(=O)NNC(=O)c2sc(NNC(C)=O)nc2C)c1	> 100 µM	–
CCCCc1c(OC)cc(O)c2c1C(=O)c1[nH]c(C(=O)O)c(O)c(=O)c1C2=O	65.3 µM	–
O=C(Nc1ccc(OS(=O)(=O)c2ccccc2)cc1)C12CC3CC(CC(C3)C1)C2	> 100 µM	> 100 µM
O=[N+]([O-])c1nccn1CC(O)c1ccc(F)cc1 (stereo unspecified)	> 100 µM	–
COc1ccc(NC(=O)CCc2cc(-c3ccc(O)c(OC)c3)nc(NC#N)n2)cc1	> 100 µM	–
COC(=O)c1cc2c3ccccc3n(C(C)=O)c2cn1	> 100 µM	–
COc1ccc(N(C)c2ncnc3occ(C)c23)cc1	> 100 µM	< 0.0113 µM
COCCOc1cc(F)c2c(Nc3ccc(NC(=O)Cn4cc(C(C)C)nn4)cc3)ncnc2c1	> 100 µM	> 100 µM
O=C(c1ccccc1)c1cc(Cl)ccc1OCCCCN1CCN(CCCCOc2ccc(Cl)cc2C(=O)c2ccccc2)CC1	48.1 µM	17.9 µM
Clc1ccc2c(NCCCNc3nccc(Nc4ccc(Br)cc4)n3)ccnc2c1	3.18 µM	1.63 µM
Cc1ccccc1N1C(=O)/C(=C/c2ccc(N(CCC#N)CCC#N)cc2)N=C1c1cc([N+](=O)[O-])ccc1Cl	> 100 µM	–
CC(C)=C[C@@H]1C[C@H](C)[C@H]2CC[C@H](C)C3=C2[C@](O)(OC3=O)[C@]1(C)O	> 100 µM	> 100 µM
O=c1c2ccccc2[se]n1-c1cccnc1	> 100 µM	–

These molecules were tested on NCI-H226 lung (assay: NCI anticancer screen, dose series, 48 h).

Compound	TGI	GI50
O=C(CCCn1ccnc1[N+](=O)[O-])NCCn1cncc1[N+](=O)[O-]	> 100 µM	–
Cn1cc(C2=C(c3ccc4ccccc4c3)C(=O)NC2=O)c2ccccc21	> 25 µM	> 25 µM
C[As](C)SC1OC(CO)C(O)C1O (stereo unspecified)	5.21 µM	1.18 µM
CNC(=S)N(C)C(=S)Nn1c(=O)c(C)nn(C)c1=S	> 100 µM	–
CCCCCCCCCC/C=C/CC(=O)SCCNC(=O)CCNC(=O)[C@@H](O)C(C)(C)COP(=O)(O)OP(=O)(O)OCC1OC(n2cnc3c(N)ncnc32)C(O)C1OP(=O)(O)O (stereo partly specified)	> 10 µM	–
Cn1c(=O)c2c(nc(Nc3cc(=O)[nH]c(=O)[nH]3)n2Cc2ccccc2)n(C)c1=O	> 100 µM	> 100 µM
COc1ccc2c(c1)CCC1C2CC[C@@]2(C)C1CC1=CC(COC(C)=O)C3C(=O)c4ccccc4C(=O)C3C12 (stereo partly specified)	> 100 µM	> 100 µM
O=C1CCCC/C(=C/c2ccccc2)N1	> 100 µM	–
O=C1CN=C(C[N+](=O)[O-])c2ccccc21	> 100 µM	–
CC/C(=C(/c1ccc(OCCN(C)C)cc1)c1ccc(OC(=O)CCCCC(=O)c2c(C)[nH]c(/C=C3\N=C(c4ccc[nH]4)C=C3OC)c2C)cc1)c1ccccc1	34.3 µM	14.2 µM
CC[C@]12C=CCN3CC[C@@]4(c5ccc(OC)cc5N(C)[C@H]4[C@@](O)(C(=O)OC)[C@@H]1OC(=O)CCC[P+](c1ccccc1)(c1ccccc1)c1ccccc1)[C@@H]32	8.62 µM and 12.4 µM	1.91 µM and 1.93 µM
CC(=O)OC1Oc2ccccc2-c2oc(=O)c(-c3cc(=O)oc4cc(O)ccc34)cc21 (stereo unspecified)	67.3 µM	27.1 µM
CC(C)(C)C(=O)OCOP(=O)(OCOC(=O)C(C)(C)C)C1CCCN(O)C1=O (stereo unspecified)	9.62 µM	0.996 µM
CC(=O)O.CC(=O)O.CC(=O)O.CC(=O)O.CC(=O)O.CC(=O)O.O.[Ti].[Ti]	> 100 µM	> 100 µM
COC(=O)C1=C(c2ccc3c(c2)OCO3)O[C@H](c2cc(OC)c(OC)c(OC)c2)[C@H]1COC(C)=O	> 100 µM	–
Cc1ccc(Cl)cc1Nc1nc(C(F)(F)F)ccc1C(=O)N1CCN(c2ccc(F)cc2)CC1	31.3 µM	15.5 µM
COc1ccc(OC)c(NC(=O)C(=O)NNC(=O)c2sc(NNC(C)=O)nc2C)c1	> 100 µM	–
CCCCc1c(OC)cc(O)c2c1C(=O)c1[nH]c(C(=O)O)c(O)c(=O)c1C2=O	23.6 µM	–
O=C(Nc1ccc(OS(=O)(=O)c2ccccc2)cc1)C12CC3CC(CC(C3)C1)C2	> 100 µM	27.7 µM
O=[N+]([O-])c1nccn1CC(O)c1ccc(F)cc1 (stereo unspecified)	> 100 µM	–
COc1ccc(NC(=O)CCc2cc(-c3ccc(O)c(OC)c3)nc(NC#N)n2)cc1	> 100 µM	–
COC(=O)c1cc2c3ccccc3n(C(C)=O)c2cn1	> 100 µM	–
COc1ccc(N(C)c2ncnc3occ(C)c23)cc1	0.0761 µM	< 0.01 µM
COCCOc1cc(F)c2c(Nc3ccc(NC(=O)Cn4cc(C(C)C)nn4)cc3)ncnc2c1	> 100 µM	60.8 µM
O=C(c1ccccc1)c1cc(Cl)ccc1OCCCCN1CCN(CCCCOc2ccc(Cl)cc2C(=O)c2ccccc2)CC1	32.2 µM	13.2 µM
Clc1ccc2c(NCCCNc3nccc(Nc4ccc(Br)cc4)n3)ccnc2c1	7.37 µM	2.74 µM
Cc1ccccc1N1C(=O)/C(=C/c2ccc(N(CCC#N)CCC#N)cc2)N=C1c1cc([N+](=O)[O-])ccc1Cl	> 100 µM	–
CC(C)=C[C@@H]1C[C@H](C)[C@H]2CC[C@H](C)C3=C2[C@](O)(OC3=O)[C@]1(C)O	> 100 µM	> 100 µM
O=c1c2ccccc2[se]n1-c1cccnc1	> 100 µM	–

These molecules were tested on CCRF-CEM leukemia (assay: NCI anticancer screen, dose series, 48 h).

Compound	TGI	GI50
O=C(CCCn1ccnc1[N+](=O)[O-])NCCn1cncc1[N+](=O)[O-]	> 100 µM	–
Cn1cc(C2=C(c3ccc4ccccc4c3)C(=O)NC2=O)c2ccccc21	> 25 µM	> 25 µM
C[As](C)SC1OC(CO)C(O)C1O (stereo unspecified)	1.13 µM	0.259 µM
CNC(=S)N(C)C(=S)Nn1c(=O)c(C)nn(C)c1=S	> 100 µM	–
CCCCCCCCCC/C=C/CC(=O)SCCNC(=O)CCNC(=O)[C@@H](O)C(C)(C)COP(=O)(O)OP(=O)(O)OCC1OC(n2cnc3c(N)ncnc32)C(O)C1OP(=O)(O)O (stereo partly specified)	> 10 µM	–
Cn1c(=O)c2c(nc(Nc3cc(=O)[nH]c(=O)[nH]3)n2Cc2ccccc2)n(C)c1=O	> 100 µM	> 100 µM
COc1ccc2c(c1)CCC1C2CC[C@@]2(C)C1CC1=CC(COC(C)=O)C3C(=O)c4ccccc4C(=O)C3C12 (stereo partly specified)	> 100 µM	> 100 µM
O=C1CCCC/C(=C/c2ccccc2)N1	> 100 µM	–
CC/C(=C(/c1ccc(OCCN(C)C)cc1)c1ccc(OC(=O)CCCCC(=O)c2c(C)[nH]c(/C=C3\N=C(c4ccc[nH]4)C=C3OC)c2C)cc1)c1ccccc1	> 100 µM	0.32 µM
CC[C@]12C=CCN3CC[C@@]4(c5ccc(OC)cc5N(C)[C@H]4[C@@](O)(C(=O)OC)[C@@H]1OC(=O)CCC[P+](c1ccccc1)(c1ccccc1)c1ccccc1)[C@@H]32	5.44 µM and 2.68 µM	0.64 µM and 0.609 µM
